Results published in PubChem BioAssay AID1996.
In brackets after ≈: the same amount, converted by molar mass.

Details: buffer; pH 7.4; 200.0 µM

Row | Compound | solubility kinetic [µg/mL]
1 | CC(=O)N(Cc1ccccc1)Cc1nc2sc(C)c(C)c2c(=O)[nH]1 | 47.5 (≈ 139 µM)
2 | O=C(NC1CCCC1)c1cc(-c2ccccc2)on1 | 4 (≈ 15.6 µM)
3 | Cc1ccc(-c2nonc2NC(=O)c2ccco2)cc1 | > 40.4
4 | O=S(=O)(c1ccc(NCc2ccc(F)cc2)nc1)N1CCCC1 | 3 (≈ 8.94 µM)
5 | O=C(/C=C/c1cccc(C(F)(F)F)c1)OCC(=O)N1CCN(c2ccccc2)CC1 | 3.7 (≈ 8.84 µM)
6 | COc1ccc(C(C)NC(=O)C2CCCC2)cc1 (stereo unspecified) | > 37.1
7 | C=CCn1c(=S)[nH]c2cc(-c3ccccc3)sc2c1=O | < 0.3
8 | O=C1NC(CCc2ccccc2)C(=O)N1CCOc1ccccc1 (stereo unspecified) | 2.5 (≈ 7.71 µM)
9 | CC(C)Cc1nc2oc3c(Cl)ncnc3c2c2c1CCCC2 | < 0.2
10 | CCN1CCCC1CNC(=O)C(=O)NC(C)C (stereo unspecified) | > 36.2
11 | CCCn1c(=N)c(C#N)cc2c(=O)n3cccc(C)c3nc21 | 2.3 (≈ 7.84 µM)
12 | CN(C)c1cccc(C(=O)OCC(=O)c2ccc[nH]2)c1 | > 40.8
13 | Cc1ccc(Cl)cc1NC(=O)COC(=O)CSc1ccccc1 | 7.2 (≈ 20.6 µM)
14 | O=S(=O)(NCCc1ccccc1)c1ccc(Br)cc1 | 3.5 (≈ 10.3 µM)
15 | Brc1ccc2ncnc(NCc3cccnc3)c2c1 | 34.3 (≈ 109 µM)
16 | COc1cc(OC)cc(C(=O)NCC(=O)N2CCN(S(=O)(=O)c3ccccc3F)CC2)c1 | 52.1 (≈ 112 µM)
17 | CC(=O)c1ccc(S(=O)(=O)NCc2cccnc2)cc1 | > 43.6
18 | CC(C)C(NS(=O)(=O)c1ccccc1)C(=O)N1CCCCCC1 (stereo unspecified) | > 50.8
19 | CCN(CC)C(=O)CCS(=O)(=O)c1cccc2nonc12 | 45.2 (≈ 145 µM)
20 | O=C(Cn1c(=O)oc2ccccc21)Nc1ccc(F)c(F)c1 | 7.9 (≈ 26 µM)
21 | COC(=O)Cc1cc(=O)[nH]c(/N=C(\N)Nc2cccc(C)c2)n1 | 10.7 (≈ 33.9 µM)
22 | COc1cc2[nH]c(=S)n(Cc3ccc(C)cc3)c(=O)c2cc1OC | < 0.4

Row | Compound | solubility kinetic [µg/mL]
23 | N#CCn1cnc2c(oc3ccccc32)c1=O | > 33.8
24 | CC1CCCCC12NC(=O)N(CC(=O)NCc1ccccc1)C2=O (stereo unspecified) | > 49.4
25 | CC(C)(C)c1cc(CCC(=O)N2CCC2)cc(C(C)(C)C)c1O | 42.6 (≈ 134 µM)
26 | NC(=O)CCCc1nc(-c2ccccc2)no1 | > 34.7
27 | Cc1cccn2c(=O)c(/C=N/O)c(Nc3ccccc3F)nc12 | 0.2 (≈ 0.64 µM)
28 | O=C1CSC(=S)N1 | > 20
29 | N#CCc1ccc(NC(=O)c2ccc(CN3CCc4ccccc4C3)cc2)cc1 | 1.6 (≈ 4.19 µM)
30 | Cn1c(N)c(C(=O)COC(=O)CNC(=O)c2ccccc2F)c(=O)n(C)c1=O | > 58.9
31 | O=C(O)CC1(CC(=O)Nc2cc(F)ccc2Cl)CCCCC1 | > 49.2
32 | CN1CCN(c2ccccc2NC(=O)c2ccc(F)cc2)CC1 | > 47
33 | COc1ccc(NC(=O)CN(C)C(=O)c2ccc(=O)[nH]c2)cc1 | > 47.3
34 | Cc1c(/C=N/O)c2ccccn2c1C(=O)c1ccc(F)cc1 | 5.5 (≈ 18.6 µM)
35 | Cc1nc(NCc2cccnc2)c2c3c(sc2n1)CC(C)CC3 (stereo unspecified) | 2.5 (≈ 7.71 µM)
36 | CCOc1ccc2[nH]c3c(N4CCc5ccccc5C4)ncnc3c2c1 | 1.2 (≈ 3.48 µM)
37 | COc1ccc(CCC(=O)NC2CCCCC2)cc1 | > 39.2
38 | CCC(=NCc1cccnc1)c1c(O)n(-c2ccccc2C)c(=O)[nH]c1=O | > 54.7
39 | Cc1ccc(C)c(N(CC(=O)N2CCCCCC2)S(C)(=O)=O)c1 | 46.9 (≈ 139 µM)
40 | O=C1NC2(CCCCCC2)C(=O)N1Cc1cccc(Cl)c1 | 15.8 (≈ 51.5 µM)
41 | COc1ccc2cc(-c3ccon3)ccc2c1 | < 0.5
42 | CCOC(=O)c1c(C)[nH]c(C(=O)COC(=O)c2cc(C)oc2C)c1C | 3 (≈ 8.64 µM)
43 | CCN(CC)C(=N)/C(C#N)=N/Nc1ccccc1 | > 36.5
44 | O=C(Nc1cccc(-c2nc3ccccc3o2)c1)c1cccnc1 | 0.3 (≈ 0.951 µM)

Row | Compound | solubility kinetic [µg/mL]
45 | CSc1ncc(-c2ccc(Cl)cc2)[nH]1 | 29.3 (≈ 130 µM)
46 | Cc1cc(C)c(NC(=O)COC(=O)c2ccncc2)c(C)c1 | 35.6 (≈ 119 µM)
47 | COCCNC(=O)COC(=O)C1=Cc2ccccc2OC1 | > 43.7
48 | COCC(=O)NC1CC(C)(C)Cc2c1cnn2-c1ccc(F)cc1 (stereo unspecified) | > 49.7
49 | CC1=CC2=NC(=O)/C(=C/c3cccs3)C(=N)N2O1 | 2.8 (≈ 10.8 µM)
50 | COC(=O)Cn1c(C)nc([N+](=O)[O-])c1Br | 31.9 (≈ 115 µM)
51 | Cn1cc(C=O)c2ccccc21 | > 23.9
52 | CC(C)=C(NC(=O)c1ccccc1)C(=O)Nc1ccc(C(=O)O)cc1 | > 50.8
53 | CN1CCN(C(=O)c2cc(Cl)cc(Cl)c2)CC1 | > 41
54 | CC1(C)CC(=O)c2ccc(OCc3ccc([N+](=O)[O-])cc3)cc2O1 | < 0.7
55 | COc1ccc(C(C)NC(=O)Cc2cccs2)cc1 (stereo unspecified) | 37.1 (≈ 135 µM)
56 | COCCCNC(=O)COc1ccc2oc3c(c2c1)CCCC3 | 44.2 (≈ 139 µM)
57 | COCCCN1CN(Cc2ccco2)CNC1=S | > 40.4
58 | CC1CN=C(N(C(=O)Nc2ccccc2)C(C)c2ccccc2)S1 (stereo unspecified) | 27 (≈ 79.5 µM)
59 | Cc1cccc(NC(=O)Cn2cc(C(=O)C3CC3)c3ccccc32)c1C | 0.6 (≈ 1.73 µM)
60 | O=C(OCC(=O)N1CCN(c2ccccc2)CC1)c1ccncc1 | > 48.8
61 | O=C(COC(=O)C1CC2C=CC1C2)Nc1ccc([N+](=O)[O-])cc1 (stereo unspecified) | > 47.4
62 | Cc1ccc2nc(NC(=O)COC(=O)c3ccccn3)sc2c1 | 32.1 (≈ 98.1 µM)
63 | O=S(=O)(NCc1cn2ccccc2n1)c1cccs1 | > 44
64 | O=C(O)C1CCC(CNS(=O)(=O)c2ccc(Cl)cc2)CC1 (stereo unspecified) | 43 (≈ 130 µM)
65 | Cc1ccc(NCCC(=O)c2ccccc2)cc1Cl | < 0.6
66 | C#CCOC(=O)CN1C(=O)c2cccc3cccc(c23)C1=O | < 0.6

Row | Compound | solubility kinetic [µg/mL]
67 | C=C(C)COc1ccc(-c2ncncc2-c2ccc(Cl)cc2)c(O)c1 | < 0.4
68 | Cc1nc(-c2ccc(NC(=O)C(C)(C)C)cc2)c(-c2ccccc2)o1 | 0.8 (≈ 2.39 µM)
69 | CC(CN1CCOCC1)OC(=O)c1ccccc1.Cl (stereo unspecified) | > 42.9
70 | Cc1ccc(C23CC4CC(CC(C(N)=O)(C4)C2)C3)cc1 | 16.6 (≈ 61.6 µM)
71 | Cn1c(=O)c(-c2ccccc2[N+](=O)[O-])c(Cl)c2ccccc21 | 1.2 (≈ 3.81 µM)
72 | COc1cccc(CNc2ccccn2)c1O | > 34.5
73 | CN(C)C(CNc1ncnc2ccccc12)c1c(F)cccc1Cl (stereo unspecified) | 49.4 (≈ 143 µM)
74 | O=C(/C=C/c1c(F)cccc1Cl)NCc1ccc2c(c1)OCO2 | < 0.7
75 | Cc1[nH]c2ccccc2c1C(=O)C(=O)NCCCn1ccnc1 | > 46.6
76 | COc1ccc(N2C(=O)CC(C3CCCO3)C2=O)cc1 (stereo unspecified) | > 41.3
77 | COc1cc2c(cc1OC)C(c1ccccc1F)NCC2 (stereo unspecified) | > 43.1
78 | CCOc1ccc(C(=O)NCCc2cnc[nH]2)cc1 | > 38.9
79 | O=C(Nc1ccc(F)cc1)Nc1ccc2c(c1)OCO2 | 0.7 (≈ 2.55 µM)
80 | Cc1ccc2cccc(OCCCOc3ccccc3CO)c2n1 | 38.1 (≈ 118 µM)
81 | c1ccc2c(c1)OCCc1c-2[nH]c2ccccc12 | 3 (≈ 12.8 µM)
82 | CCC1CN(C(=O)NCc2ccc(F)cc2)c2ccccc2O1 (stereo unspecified) | 37.4 (≈ 119 µM)
83 | Cc1cccc(Nc2ccc3nonc3c2[N+](=O)[O-])c1C | < 0.2
84 | CCOC(=O)N1CCN(CCC(=O)Nc2ccc(F)c(F)c2)CC1 | > 51.2
85 | O=C(c1cc2cc(F)ccc2[nH]1)N1CCN(c2cccc(Cl)c2)CC1 | 0.5 (≈ 1.4 µM)
86 | CN(C)/C=C/C(=O)c1cnc(-c2ccccn2)s1 | > 38.9
